{
  "source": "PubChem BioAssay AID1259411",
  "about": "(Chemical Carcinogenesis Research Information System (CCRIS), 2018)",
  "tested_on": "rodent carcinogenicity bioassays, tumor incidence",
  "assay": "CCRIS carcinogenicity studies",
  "how_it_was_run": "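NCI-built, expert-reviewed records of carcinogenicity and related test outcomes (mutagenicity, tumor promotion/inhibition) compiled from published and report sources, historical span 1985-2011, not updated.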",
  "note": "The source made the active and inactive calls. No rule for the calls is given here.",
  "data": [
    {"compound": "OC[P+](CO)(CO)CO", "values": [
      {"measurement": "carcinogen call", "setting": "Species: MOUSE, Strain/Sex: B6C3F1/FEMALE, Route: GAVAGE, Dose: 0, 5, 10 MG/KG IN DISTILLED WATER 5 D/WK FOR 103 WK, Dose: 0, 5, 10 MG/KG IN DISTILLED WATER 5 D/WK FOR 103 WK", "result": "inactive; negative"},
      {"measurement": "carcinogen call", "setting": "Species: MOUSE, Strain/Sex: B6C3F1/FEMALE, Route: GAVAGE, Dose: 0, 15, 30 MG/KG IN DISTILLED WATER 5 D/WK FOR 103 WK, Dose: 0, 15, 30 MG/KG IN DISTILLED WATER 5 D/WK FOR 103 WK", "result": "inactive; negative"},
      {"measurement": "carcinogen call", "setting": "Species: MOUSE, Strain/Sex: B6C3F1/MALE, Route: GAVAGE, Dose: 0, 5, 10 MG/KG IN DISTILLED WATER 5 D/WK FOR 103 WK, Dose: 0, 5, 10 MG/KG IN DISTILLED WATER 5 D/WK FOR 103 WK", "result": "inactive; negative"},
      {"measurement": "carcinogen call", "setting": "Species: MOUSE, Strain/Sex: B6C3F1/MALE, Route: GAVAGE, Dose: 0, 7.5, 15 MG/KG IN DISTILLED WATER 5 D/WK FOR 103 WK, Dose: 0, 7.5, 15 MG/KG IN DISTILLED WATER 5 D/WK FOR 103 WK", "result": "inactive; negative"},
      {"measurement": "carcinogen call", "setting": "Species: RAT, Strain/Sex: F344/FEMALE, Route: GAVAGE, Dose: 0, 3.75, 7.5 MG/KG IN DISTILLED WATER 5 D/WK FOR 103 WK, Dose: 0, 3.75, 7.5 MG/KG IN DISTILLED WATER 5 D/WK FOR 103 WK", "result": "inactive; negative"},
      {"measurement": "carcinogen call", "setting": "Species: RAT, Strain/Sex: F344/FEMALE, Route: GAVAGE, Dose: 0, 5, 10 MG/KG IN DISTILLED WATER 5 D/WK FOR 104 WK, Dose: 0, 5, 10 MG/KG IN DISTILLED WATER 5 D/WK FOR 104 WK", "result": "inactive; negative"},
      {"measurement": "carcinogen call", "setting": "Species: RAT, Strain/Sex: F344/MALE, Route: GAVAGE, Dose: 0, 3.75, 7.5 MG/KG IN DISTILLED WATER 5 D/WK FOR 103 WK, Dose: 0, 3.75, 7.5 MG/KG IN DISTILLED WATER 5 D/WK FOR 103 WK", "result": "inactive; negative"},
      {"measurement": "carcinogen call", "setting": "Species: RAT, Strain/Sex: F344/MALE, Route: GAVAGE, Dose: 0, 5, 10 MG/KG IN DISTILLED WATER 5 D/WK FOR 104 WK, Dose: 0, 5, 10 MG/KG IN DISTILLED WATER 5 D/WK FOR 104 WK", "result": "inactive; negative"}
    ]},
    {"compound": "CCCN(CC(C)=O)N=O", "values": [
      {"measurement": "carcinogen call", "setting": "Species: HAMSTER, Strain/Sex: SYRIAN/MALE,FEMALE, Route: SUBCUTANEOUS, Dose: 50-200 MG/KG 1/WK FOR LIFE, Tumor Site: Type of Lesion: RESPIRATORY TRACT, LIVER, KIDNEY, Tumor Site: Type of Lesion: RESPIRATORY TRACT, LIVER, KIDNEY", "result": "active; positive"},
      {"measurement": "carcinogen call", "setting": "Species: MOUSE, Strain/Sex: NMRI/FEMALE, Route: SUBCUTANEOUS, Dose: 0.05, 0.1, 0.2% OF 603 MG/KG IN SALINE 1/WK FOR LIFE, Dose: 0.05, 0.1, 0.2% OF 603 MG/KG IN SALINE 1/WK FOR LIFE, Tumor Site: Type of Lesion: LIVER: HEMANGIOENDOTHELIAL SARCOMA, NASAL CAVITY: PAPILLOMA, ADENOCARCINOMA, NASAL TURBINATES: PAPILLOMA, ADENOCARCINOMA, Tumor Site: Type of Lesion: LIVER: HEMANGIOENDOTHELIAL SARCOMA, NASAL CAVITY: PAPILLOMA, ADENOCARCINOMA, NASAL TURBINATES: PAPILLOMA, ADENOCARCINOMA", "result": "active; positive"},
      {"measurement": "carcinogen call", "setting": "Species: RAT, Strain/Sex: SPRAGUE-DAWLEY/MALE,FEMALE, Route: SUBCUTANEOUS, Dose: 0.12, 0.42, 0.85 MG/KG 1/WK FOR LIFE, Dose: 0.12, 0.42, 0.85 MG/KG 1/WK FOR LIFE, Tumor Site: Type of Lesion: LIVER: HEPATOMA, CARCINOMA", "result": "active; positive"}
    ]},
    {"compound": "Oc1c(Cl)c(Cl)c(Cl)c(Cl)c1Cl", "values": [
      {"measurement": "carcinogen call", "setting": "Species: MOUSE, Strain/Sex: B6C3F1/FEMALE, Route: ORAL, Dose: 0, 100, 200, 600 PPM DOWCIDE EC-7 IN FEED FOR 103 WK (STUDY DURATION: 103 WK), Dose: 0, 100, 200, 600 PPM DOWCIDE EC-7 IN FEED FOR 103 WK (STUDY DURATION: 103 WK), Tumor Site: Type of Lesion: ADRENAL GLAND/MEDULLA: PHEOCHROMOCYTOMA: ADRENAL GLAND/MEDULLA: PHEOCHROMOCYTOMA OR MALIGNANT PHEOCHROMOCYTOMA, CIRCULAT", "result": "active; positive"},
      {"measurement": "carcinogen call", "setting": "Species: MOUSE, Strain/Sex: B6C3F1/FEMALE, Route: ORAL, Dose: 0, 100, 200 PPM TECHNICAL GRADE PENTACHLOROPHENOL IN FEED FOR 103 WK (STUDY DURATION: 103 WK), Dose: 0, 100, 200 PPM TECHNICAL GRADE PENTACHLOROPHENOL IN FEED FOR 103 WK (STUDY DURATION: 103 WK), Tumor Site: Type of Lesion: LIVER: HEPATOCELLULAR ADENOMA OR CARCINOMA, CIRCULATORY SYSTEM: HEMANGIOSARCOMA", "result": "active; positive"},
      {"measurement": "carcinogen call", "setting": "Species: MOUSE, Strain/Sex: B6C3F1/MALE, Route: ORAL, Dose: 0, 100, 200, 600 PPM DOWCIDE EC-7 IN FEED FOR 103 WK (STUDY DURATION: 103 WK), Dose: 0, 100, 200, 600 PPM DOWCIDE EC-7 IN FEED FOR 103 WK (STUDY DURATION: 103 WK), Tumor Site: Type of Lesion: ADRENAL GLAND/MEDULLA: PHEOCHROMOCYTOMA, ADRENAL GLAND/MEDULLA: PHEOCHROMOCYTOMA OR MALIGNANT PHEOCHROMOCYTOMA, LIVER: H, Tumor Site: Type of Lesion: ADRENAL GLAND/MEDULLA: PHEOCHROMOCYTOMA, ADRENAL GLAND/MEDULLA: PHEOCHROMOCYTOMA OR MALIGNANT PHEOCHROMOCYTOMA, LIVER: H", "result": "active; positive"},
      {"measurement": "carcinogen call", "setting": "Species: MOUSE, Strain/Sex: B6C3F1/MALE, Route: ORAL, Dose: 0, 100, 200 PPM TECHNICAL GRADE PENTACHLOROPHENOL IN FEED FOR 103 WK (STUDY DURATION: 103 WK), Dose: 0, 100, 200 PPM TECHNICAL GRADE PENTACHLOROPHENOL IN FEED FOR 103 WK (STUDY DURATION: 103 WK), Tumor Site: Type of Lesion: ADRENAL GLAND/MEDULLA: PHEOCHROMOCYTOMA, LIVER: HEPATOCELLULAR ADENOMA, LIVER: HEPATOCELLULAR ADENOMA OR CARCINOMA, Tumor Site: Type of Lesion: ADRENAL GLAND/MEDULLA: PHEOCHROMOCYTOMA, LIVER: HEPATOCELLULAR ADENOMA, LIVER: HEPATOCELLULAR ADENOMA OR CARCINOMA", "result": "active; positive"},
      {"measurement": "carcinogen call", "setting": "Species: MOUSE, Strain/Sex: B6C3F1/MALE, Route: ORAL, Dose: 0, 1200 PPM IN DIET FOR 13 WK (STUDY DURATION: 42 WK)", "result": "inactive; negative"},
      {"measurement": "carcinogen call", "setting": "Species: RAT, Strain/Sex: F344/N/FEMALE, Route: ORAL, Dose: 0, 200, 400, 600 PPM IN DIET FOR 105 WK (STUDY DURATION: 105 WK), Dose: 0, 200, 400, 600 PPM IN DIET FOR 105 WK (STUDY DURATION: 105 WK)", "result": "inactive; negative"},
      {"measurement": "carcinogen call", "setting": "Species: RAT, Strain/Sex: F344/N/FEMALE, Route: ORAL, Dose: 0, 1000 PPM IN DIET FOR 52 WK (STUDY DURATION: 105 WK)", "result": "inactive; negative"},
      {"measurement": "carcinogen call", "setting": "Species: RAT, Strain/Sex: F344/N/MALE, Route: ORAL, Dose: 0, 200, 400, 600 PPM IN DIET FOR 105 WK (STUDY DURATION: 105 WK), Dose: 0, 200, 400, 600 PPM IN DIET FOR 105 WK (STUDY DURATION: 105 WK)", "result": "inactive; negative"},
      {"measurement": "carcinogen call", "setting": "Species: RAT, Strain/Sex: F344/N/MALE, Route: ORAL, Dose: 0, 1000 PPM IN DIET FOR 52 WK (STUDY DURATION: 105 WK), Tumor Site: Type of Lesion: SKIN: KERATOACANTHOMA", "result": "active; positive"}
    ]},
    {"compound": "CCCO", "values": [
      {"measurement": "carcinogen call", "setting": "Species: DOG, Strain/Sex: BEAGLE/FEMALE, Route: GAVAGE, Dose: 0, 30, 180 MG/KG/D 7 D/WK FOR 52 WK (STUDY DURATION: 52 WK), Dose: 0, 30, 180 MG/KG/D 7 D/WK FOR 52 WK (STUDY DURATION: 52 WK)", "result": "inactive; negative"},
      {"measurement": "carcinogen call", "setting": "Species: DOG, Strain/Sex: BEAGLE/MALE, Route: GAVAGE, Dose: 0, 30, 180 MG/KG/D 7 D/WK FOR 52 WK (STUDY DURATION: 52 WK), Dose: 0, 30, 180 MG/KG/D 7 D/WK FOR 52 WK (STUDY DURATION: 52 WK)", "result": "inactive; negative"},
      {"measurement": "carcinogen call", "setting": "Species: MONKEY, Strain/Sex: MACACA ARCTODIES/MALE, Route: ORAL, Dose: 0, 0.25, 2.5, 25 MG/KG 1/D FOR 54 WK (STUDY DURATION: 54 WK), Dose: 0, 0.25, 2.5, 25 MG/KG 1/D FOR 54 WK (STUDY DURATION: 54 WK)", "result": "inactive; negative"},
      {"measurement": "carcinogen call", "setting": "Species: MOUSE, Strain/Sex: SWISS/FEMALE, Route: GAVAGE, Dose: 0, 50, 500 MG/KG/D FOR 18 MO (STUDY DURATION: 18 MO), Dose: 0, 50, 500 MG/KG/D FOR 18 MO (STUDY DURATION: 18 MO)", "result": "inactive; negative"},
      {"measurement": "carcinogen call", "setting": "Species: MOUSE, Strain/Sex: SWISS/MALE, Route: GAVAGE, Dose: 0, 50, 500 MG/KG/D FOR 18 MO (STUDY DURATION: 18 MO), Dose: 0, 50, 500 MG/KG/D FOR 18 MO (STUDY DURATION: 18 MO)", "result": "inactive; negative"},
      {"measurement": "carcinogen call", "setting": "Species: RAT, Strain/Sex: SPRAGUE-DAWLEY/FEMALE, Route: GAVAGE, Dose: 0, 50, 500 MG/KG 1/D FOR 24 MO (STUDY DURATION: 24 MO), Dose: 0, 50, 500 MG/KG 1/D FOR 24 MO (STUDY DURATION: 24 MO)", "result": "inactive; negative"},
      {"measurement": "carcinogen call", "setting": "Species: RAT, Strain/Sex: SPRAGUE-DAWLEY/MALE, Route: GAVAGE, Dose: 0, 50, 500 MG/KG 1/D FOR 24 MO (STUDY DURATION: 24 MO), Dose: 0, 50, 500 MG/KG 1/D FOR 24 MO (STUDY DURATION: 24 MO)", "result": "inactive; negative"}
    ]}
  ]
}
